According to patent US20130090333A1, “BENZOXAZINE DERIVATIVES AS CRAC MODULATORS” (Hoffmann-La Roche Inc., priority 2011, published 2013):
Read-outs that look alike come from different tables or passages of the source.

Legend:
Type in all cases: cell-based
[1] = tested on: T cell IL-2 production in human whole blood; assay: Human Whole Blood Assay (inhibition of T cell IL-2 production); settings: 10 μM Thapsigargin overnight, plasma IL-2 by AlphaLISA, read-out: HWB
Method: Inhibition of T cell IL-2 production CRAC compounds were tested in human whole blood from normal donors. 200 μl of human whole blood was aliquoted into each well of a round bottom 96 well plate. Concentration-response curves were generated for test compounds and CsA (as controls) by performing serial dilutions of the compounds and incubating each concentration in a single well for 30 min (experiment was performed in triplicate). Following incubation, the blood was stimulated with 10 μM Thapsigargin (SIGMA) overnight at 37° C. IL-2 concentrations in the plasma were determined by AlphaLISA IL-2 assay (Perkin Elmer). Data analysis was performed using GraphPad PRISMS.

[2] = tested on: IL-2 production in Jurkat cell (ATCC); assay: Jurkat IL-2 Production Assay; settings: Jurkat cells, 18-20 h incubation, serum/stimulant variant (1% FBS/PHA or 30% FBS/PMA+ionomycin) not given
Method: Jurkat IL-2 Production Assay Cell: Jurkat cell (ATCC) was grown in RPMI 1640 with 10% FBS and 1% penicillin/streptomycin. The cell density was kept at 1.2˜1.8×10^6/mL in culture flask before seeding into culture plate, and the cell density in the plate was 0.5×10^6/2004/well. Culture Media: RPMI 1640 with 1% FBS or 30% FBS for high serum assay. Test Compound: Serial dilution was done in 100% DMSO, and intermediate dilution was done with RPMI 1640 medium with 1% FBS. The DMSO final concentration in culture well was 0.25%. Stimulant: PHA (Sigma#L9017-10MG) was used for the assay with 1% FBS in culture medium, and added after 10 minutes exposure of cell to compound/DMSO. The PHA final concentration in culture well was 5 μg/mL. PMA (Sigma# P-8139 5MG)/Ionomycin (Sigma# I0634-5MG) was used for the assay with 30% FBS in culture medium, and added at same time point as the 1% FBS culture assay. The final concentration of PMA was 50 ng/mL, and Ionomycin final concentration was 500 ng/mL. Incubation: At 37° C. with 5% CO2 and 95% humidity for 18 h˜20 h. IC50: IC50 was calculated with the data analysis software XLfit4, General Pharmacology model 251.

[3] = tested on: PBMC from healthy donors; assay: [3H]Thymidine Incorporation (MLR); settings: mixed PBMC responder/stimulator 1:1, 4 days
Method: [3H]Thymidine Incorporation (MLR)
Freshly isolated PBMC from healthy donors were either used as responders, where the cells were pre-treated with various concentrations of inhibitors (as indicated in the figure legends), or stimulators where the cells were pre-treated with 0.05 mg/ml Mitomycin C for 20 min. Stimulator cells were washed twice with RPMI 1640 and mixed with responder PBMCs at a 1:1 ratio, totaling 2×10^5 cells/well in quadruplicate in a 96-well U-bottom tissue culture plates (Falcon). Cells were cultured in complete RPMI 1640 (supplemented with 10% FBS, 1 mM sodium pyruvate, and 100 IU/ml penicillin-streptomycin, 0.01M HEPES and 55 μM β-ME [Invitrogen]) for 4 days at 37° C. in 5% CO2. Cultures were pulsed with 0.5 μCi [3H]-thymidine (PerkinElmer) during the last 6 hrs of culture. Cells were harvested on filter plates using a 96-well plate harvester (PerkinElmer), and the incorporation of [3H]-thymidine was measured as cpm in a Topcount Microplate scintillation counter (PerkinElmer). Stimulator cells alone or responder cells alone were set up in parallel as controls.

| Compound | IC50 ([1]; T-cell) | IC50 ([2]; Homo sapiens) | IC50 [1] | IC50 [2] | IC50 [3] |
| --- | --- | --- | --- | --- | --- |
| CCc1sc(-c2cnccn2)nc1-c1ccc2c(c1)OCC(c1c(F)cccc1F)N2 (centres unmarked) [Example 16, 3-(2,6-difluorophenyl)-7-(5-ethyl-2-(pyrazin-2-yl)thiazol-4-yl)-3,4-dihydro-2H-benzo[b][1,4]oxazine] | 870 nM | 20 nM | – | – | 180 nM |
| Cc1cc(C(F)(F)F)ccc1-c1ccc2c(c1)OCC(c1c(F)cccc1Cl)N2 (centres unmarked) [Example 29, 3-(2-Chloro-6-fluoro-phenyl)-7-(2-methyl-4-trifluoromethyl-phenyl)-3,4-dihydro-2H-benzo[1,4]oxazine] | 5330 nM | 160 nM | – | – | – |
| Cc1sc(-c2ccccn2)nc1-c1ccc2c(c1)OCC(c1c(F)cccc1Cl)N2 (centres unmarked) [Example 31, 3-(2-Chloro-6-fluoro-phenyl)-7-(5-methyl-2-pyridin-2-yl-thiazol-4-yl)-3,4-dihydro-2H-benzo[1,4]oxazine] | 3550 nM | 140 nM | – | – | – |
| Cc1sc(-c2cccnc2)nc1-c1ccc2c(c1)OCC(c1c(F)cccc1Cl)N2 (centres unmarked) [Example 32, 3-(2-Chloro-6-fluoro-phenyl)-7-(5-methyl-2-pyridin-3-yl-thiazol-4-yl)-3,4-dihydro-2H-benzo[1,4]oxazine] | 580 nM | 50 nM | – | – | – |
| (R)-3-(2,6-Difluoro-phenyl)-7-(2-methyl-4-trifluoromethyl-phenyl)-3,4-dihydro-2H-benzo[1,4]oxazine or (S)-3-(2,6-Difluoro-phenyl)-7-(2-methyl-4-trifluoromethyl-phenyl)-3,4-dihydro-2H-benzo[1,4]oxazine [Example 2] | – | – | 3160 nM | 80 nM | – |

The remaining compounds from weak to strong by IC50 ([1]; T-cell), led by results:

| IC50 ([1]; T-cell) | IC50 ([2]; Homo sapiens) | IC50 [1] | IC50 [2] | Compound | IC50 [3] |
| --- | --- | --- | --- | --- | --- |
| 520 nM | 30 nM | – | – | CCc1sc(-c2cccnc2)nc1-c1ccc2c(c1)OCC(c1c(F)cccc1F)N2 (centres unmarked) [Example 14, 3-(2,6-Difluoro-phenyl)-7-(5-ethyl-2-pyridin-3-yl-thiazol-4-yl)-3,4-dihydro-2H-benzo[1,4]oxazine] | 100 nM |
| 510 nM | 20 nM | – | – | CCn1nc(C(F)(F)F)cc1-c1ccc2c(c1)OCC(c1c(F)cccc1F)N2 (centres unmarked) [Example 6, 3-(2,6-Difluoro-phenyl)-7-(2-ethyl-5-trifluoromethyl-2H-pyrazol-3-yl)-3,4-dihydro-2H-benzo[1,4]oxazine] | 110 nM |
| 430 nM | 30 nM | – | – | Cc1sc(-c2cccnc2)nc1-c1ccc2c(c1)OCC(c1c(F)cccc1F)N2 (centres unmarked) [Example 12, 3-(2,6-Difluoro-phenyl)-7-(5-methyl-2-pyridin-3-yl-thiazol-4-yl)-3,4-dihydro-2H-benzo[1,4]oxazine] | 190 nM |
| 360 nM | 30 nM | – | – | CCc1sc(-c2cc(C)on2)nc1-c1ccc2c(c1)OCC(c1c(F)cccc1F)N2 (centres unmarked) [Example 20, 3-(2,6-difluorophenyl)-7-(5-ethyl-2-(5-methylisoxazol-3-yl)thiazol-4-yl)-3,4-dihydro-2H-benzo[b][1,4]oxazine] | 430 nM |
| 320 nM | 70 nM | – | – | CCn1nc(-c2cccnc2)cc1-c1ccc2c(c1)OCC(c1c(F)cccc1F)N2 (centres unmarked) [Example 7, 3-(2,6-Difluoro-phenyl)-7-(2-ethyl-5-pyridin-3-yl-2H-pyrazol-3-yl)-3,4-dihydro-2H benzo[1,4]oxazine] | 330 nM |
| 320 nM | 20 nM | – | – | CCc1sc(-c2ccncc2)nc1-c1ccc2c(c1)OCC(c1c(F)cccc1F)N2 (centres unmarked) [Example 17, 3-(2,6-Difluoro-phenyl)-7-(5-ethyl-2-pyridin-4-yl-thiazol-4-yl)-3,4-dihydro-2H-benzo[1,4]oxazine] | 440 nM |
